Test results as given in PubChem BioAssay (NCI).
Values joined by “and” are separate entries in the source; they are usually repeats but may differ in a detail not shown here. Equal entries are not always repeated.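 In this assay, cells in 96-well plates receive the compound at five concentrations for 48 hours. Endpoints are linearly interpolated between the surrounding concentrations. Here, GI50 denotes the concentration required for 50% inhibition of growth. TGI: concentration producing complete growth inhibition.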

Key:
Assay in all cases: inhibition of tumour cell growth, NCI panel, 48 h
HS 578T breast = system: HS 578T breast
U251 CNS = system: U251 CNS
NCI-H23 lung = system: NCI-H23 lung
HOP-62 NSCLC = system: HOP-62 NSCLC
LOX IMVI melanoma = system: LOX IMVI melanoma
SK-MEL-2 melanoma = system: SK-MEL-2 melanoma
K-562 leukemia = system: K-562 leukemia
MOLT-4 leukemia = system: MOLT-4 leukemia

SMILES	GI50 (HS 578T breast)	TGI (HS 578T breast)	GI50 (U251 CNS)	GI50 (NCI-H23 lung)	TGI (NCI-H23 lung)	GI50 (HOP-62 NSCLC)	TGI (HOP-62 NSCLC)	GI50 (LOX IMVI melanoma)	TGI (LOX IMVI melanoma)	GI50 (SK-MEL-2 melanoma)	TGI (SK-MEL-2 melanoma)	GI50 (K-562 leukemia)	TGI (K-562 leukemia)	GI50 (MOLT-4 leukemia)	TGI (MOLT-4 leukemia)	TGI (U251 CNS)
Cc1cc(Cl)ccc1Nc1nc(C(F)(F)F)ccc1C(=O)N/N=C/c1ccc(Cl)cc1	2.53 µM	9.62 µM	2.07 µM	1.85 µM	6.48 µM	2.33 µM	9.22 µM	1.38 µM	11.7 µM	2.18 µM	9.2 µM	1.83 µM	8.22 µM	0.75 µM	4.35 µM	–
COc1ccc(-c2nc(/C=N/Nc3cc(C)nc4ccc(Cl)cc34)c(C)o2)cc1	1.84 µM	3.79 µM	1.78 µM	1.99 µM	4.09 µM	1.64 µM	3.12 µM	1.74 µM	3.23 µM	10.9 µM	24.1 µM	–	–	–	–	3.28 µM
CCCCC[C@H]1C/C=C2/C(=O)C=C[C@@H]2C/C=C\CCCC(=O)O[C@@H](CCCCC)C/C=C2/C(=O)C=C[C@@H]2C/C=C\CCCC(=O)O1	1.28 µM	10.1 µM	0.151 µM	0.289 µM	0.822 µM	0.536 µM	1.29 µM	0.0695 µM	0.217 µM	0.385 µM	1.22 µM	0.0891 µM	0.561 µM	0.0828 µM	0.898 µM	0.473 µM
N#CCCN(CCCN(CCCN(C(=O)Nc1ccccc1)c1ccccc1)C(=O)Nc1ccccc1)C(=O)Nc1ccccc1	–	> 100 µM	–	–	–	> 100 µM	> 100 µM	–	> 100 µM	> 100 µM	> 100 µM	–	> 8.75 µM	3.95 µM	> 100 µM	> 100 µM
CCC1CN2C(=N1)c1ccccc1-c1cc(Cl)ccc12 (centres undefined)	6.58 µM	34.5 µM	3.18 µM	3.78 µM	15.2 µM	2.97 µM	8.87 µM	1.81 µM	4.44 µM	2.75 µM	7.77 µM	2.39 µM	7.1 µM	2.51 µM	7.16 µM	11.6 µM
CNCCCn1c2c(c3ccc([N+](=O)[O-])cc3c1=O)C(=O)c1cc(OC)cnc1-2	1.17 µM	5.27 µM	0.0364 µM	0.04 µM	0.267 µM	0.03 µM	0.139 µM	0.0259 µM	0.136 µM	0.348 µM	0.994 µM	0.0435 µM	1.53 µM	0.0306 µM	0.293 µM	0.251 µM
O=C1c2cccc(NCCN=Cc3cc([N+](=O)[O-])ccc3O)c2C(=O)c2c(NCCN=Cc3cc([N+](=O)[O-])ccc3O)cccc21	2.74 µM	29.4 µM	2.65 µM	5.8 µM	> 100 µM	3.37 µM	59.8 µM	2.62 µM	29.1 µM	20.5 µM	96.4 µM	3.67 µM	> 100 µM	0.648 µM	16.7 µM	19.7 µM
COc1ccc2c(c1)nnn1c3ncccc3c(N=O)c21	1.17 µM and 11.5 µM	–	0.72 µM and 1.18 µM	5.17 µM and 1.84 µM	13.5 µM and 6.43 µM	7.51 µM	21.5 µM	0.799 µM and 0.552 µM	7.06 µM and 2.56 µM	2.18 µM and 4.29 µM	10.3 µM and > 100 µM	–	–	0.0094 µM and 0.0123 µM	–	31.3 µM and 12.9 µM
CCN(Cc1ccc(F)cc1)c1ccc(CO)c(F)c1	17.2 µM	> 75.5 µM	12.5 µM	17.5 µM	> 94.6 µM	15.2 µM	> 100 µM	13.9 µM	31.2 µM	10.5 µM	26.8 µM	7.46 µM	> 73.5 µM	21.2 µM	57.6 µM	> 63 µM
O=S(=O)(Nc1ccc(Br)c(Cl)c1)c1ccc(-c2cnc(C3CC3)o2)cc1	0.351 µM	18.3 µM	0.507 µM	1.27 µM	15.6 µM	0.58 µM	19 µM	0.565 µM	16.2 µM	2.45 µM	24 µM	0.323 µM	> 100 µM	0.688 µM	> 50.4 µM	15.4 µM
CCC(C)[C@H]1O[C@]2(C=C[C@@H]1C)C[C@@H]1C[C@@H](C/C=C(\C)[C@@H](OC3C[C@H](OC)C(O[C@H]4C[C@H](OC)[C@@H](O)[C@H](C)O4)[C@H](C)O3)[C@@H](C)/C=C/C=C3\CO[C@@H]4[C@H](O)C(C)=C[C@@H](C(=O)O1)[C@]34O)O2 (some centres undefined)	1.02 µM	2.87 µM	1.42 µM	1.23 µM	4.16 µM	1.37 µM	6.53 µM	–	–	1.24 µM	2.6 µM	–	–	–	–	6.47 µM
O=C(N/C(=C/c1ccc(Cl)cc1Cl)c1nc2ccccc2s1)c1ccccc1	–	44.3 µM	–	–	26.5 µM	–	26.7 µM	–	18.7 µM	–	36.1 µM	–	> 100 µM	–	> 100 µM	9.05 µM
CCOC(=O)c1cc2c(n1Cc1cccc(OC)c1)-c1oncc1CCC2	1.6 µM	24.8 µM	2.16 µM	8.68 µM	> 100 µM	3.54 µM	> 100 µM	2.93 µM	> 100 µM	0.535 µM	14.9 µM	0.456 µM	> 100 µM	3.18 µM	> 100 µM	> 100 µM
Cc1ccc(-c2nc(C#N)c(S(=O)(=O)n3nc(C)cc3N)o2)cc1	21.3 µM	58.1 µM	13.6 µM	13.9 µM	37.3 µM	17.7 µM	35.1 µM	1.86 µM	3.59 µM	15 µM	32.3 µM	1.25 µM	4.3 µM	1.97 µM	4.77 µM	26.5 µM
O=C(O)c1cc2ccc3ccccc3c2oc1=O	–	> 100 µM	–	–	> 100 µM	–	> 100 µM	–	> 100 µM	–	> 100 µM	–	> 100 µM	–	> 100 µM	> 100 µM
CC(=O)OC[C@]12CC[C@@H](C(=O)CBr)[C@@H]1[C@H]1CC[C@@H]3[C@@]4(C)CCCNC(C)(C)[C@@H]4CC[C@@]3(C)[C@]1(C)CC2	15.9 µM	> 100 µM	12.7 µM	7.01 µM	23.5 µM	14.3 µM	28.2 µM	1.76 µM	3.31 µM	6.03 µM	20.3 µM	2.61 µM	8.33 µM	2.03 µM	5.43 µM	25.4 µM

SMILES	GI50 (HS 578T breast)	TGI (HS 578T breast)	GI50 (U251 CNS)	GI50 (NCI-H23 lung)	TGI (NCI-H23 lung)	GI50 (HOP-62 NSCLC)	TGI (HOP-62 NSCLC)	GI50 (LOX IMVI melanoma)	TGI (LOX IMVI melanoma)	GI50 (SK-MEL-2 melanoma)	TGI (SK-MEL-2 melanoma)	GI50 (K-562 leukemia)	TGI (K-562 leukemia)	GI50 (MOLT-4 leukemia)	TGI (MOLT-4 leukemia)	TGI (U251 CNS)
CC1CC2OC(=O)C(C)C2CC2(C)C(OC3OC(CO)C(O)C(O)C3O)OCCC12 (centres undefined)	–	> 100 µM	–	–	> 100 µM	–	> 100 µM	–	> 100 µM	–	> 100 µM	–	> 100 µM	–	> 100 µM	> 100 µM
COc1ccc(-c2nc(-c3ccccc3)c(-c3ccccc3)[nH]2)cc1OC1CCCC1	> 100 µM	> 100 µM	> 100 µM	> 100 µM	> 100 µM	> 100 µM	> 100 µM	34.3 µM	> 100 µM	> 100 µM	> 100 µM	79.5 µM	> 100 µM	71.2 µM	> 100 µM	> 100 µM
COc1cc2c3c(n(CCCCN)c(=O)c2cc1OC)-c1cc2c(cc1C3=O)OCO2	4.6 µM	11.8 µM	0.407 µM	0.676 µM	3.09 µM	0.322 µM	1.21 µM	0.107 µM	0.529 µM	6.3 µM	18 µM	0.431 µM	2.17 µM	0.114 µM	2.95 µM	2.86 µM
COc1cccc(-n2nc(C)c3c(N/N=C(\C)c4ccncc4)ncnc32)c1	> 25 µM	> 25 µM	> 22.2 µM	> 25 µM	> 25 µM	> 25 µM	> 25 µM	> 25 µM	> 25 µM	> 25 µM	> 25 µM	> 25 µM	> 25 µM	> 25 µM	> 25 µM	> 25 µM
Nc1nc(N)c2nc(CNc3ccc(C(=O)NC(CC(=O)O)C(=O)O)cc3)cnc2n1 (centres undefined)	59.2 µM	> 100 µM	1.97 µM	2.38 µM	> 100 µM	6.4 µM	> 100 µM	0.16 µM	> 100 µM	0.412 µM	> 100 µM	0.0741 µM	> 100 µM	0.903 µM	> 100 µM	> 100 µM
Cc1cc(C(=C2C=CC(=Nc3ccccc3)C=C2)c2ccc(Nc3ccccc3)cc2)ccc1N	–	–	0.185 µM	0.382 µM	1.69 µM	–	–	0.169 µM	0.31 µM	0.216 µM	0.529 µM	–	–	–	–	0.39 µM
Cc1cc(NCCCCCCNc2cc(C)nc3cc(N(C)C)ccc23)c2ccc(N(C)C)cc2n1	–	–	–	–	> 100 µM	–	> 100 µM	–	–	–	> 100 µM	–	> 100 µM	–	> 100 µM	> 100 µM
O=C(O)C1OC1(c1cccc(Cl)c1)c1ccccc1Cl (centres undefined)	–	52.4 µM	–	–	54.6 µM	–	61.3 µM	–	44 µM	–	31.2 µM	–	87.6 µM	–	82.4 µM	25.4 µM
CCCc1cc(=O)[nH]c(-n2nc(C)cc2C)n1	15 µM	> 100 µM	1.71 µM	–	–	5.58 µM	> 100 µM	2.81 µM	> 100 µM	13 µM	63 µM	3.4 µM	> 100 µM	3.44 µM	> 100 µM	> 100 µM
COc1ccc(/C=C/C(=O)c2ccc(O)c(CN3CCN(c4cc5c(cc4F)c(=O)c(C(=O)O)cn5C4CC4)CC3)c2)cc1	0.714 µM	> 100 µM	0.387 µM	2.33 µM	> 100 µM	1.97 µM	> 100 µM	–	–	2.87 µM	21 µM	0.463 µM	> 100 µM	5.29 µM	> 100 µM	> 100 µM
c1csc(-c2cn3nc(-c4c[nH]c5ccccc45)sc3n2)c1	2.65 µM	> 100 µM	1.21 µM	4.47 µM	> 100 µM	1.58 µM	39.9 µM	–	–	1.08 µM	23.8 µM	0.382 µM	39.9 µM	–	–	17 µM
NC(=O)c1ccccc1Nc1ccc2nnc(-c3ccncc3)n2n1	18.1 µM	58.3 µM	7.4 µM	15 µM	40.4 µM	9.93 µM	22.4 µM	1.87 µM	3.75 µM	–	–	11.1 µM	60.4 µM	5.18 µM	30.4 µM	20.6 µM
O=C(Nc1ccncc1)C(=O)c1cn(Cc2ccc(Cl)cc2)c2ccccc12	0.0339 µM	> 100 µM	0.0472 µM	0.0548 µM	> 100 µM	0.0597 µM	> 100 µM	0.0574 µM	> 100 µM	–	–	0.0265 µM	34.8 µM	0.064 µM	> 100 µM	> 100 µM
CN1CCN(CCOc2ccc(-c3cnc4c(-c5ccc(C(F)(F)F)cc5)cnn4c3)cc2)CC1	1.62 µM	3.41 µM	1.3 µM	1.62 µM	3.14 µM	1.63 µM	3.55 µM	1.62 µM	3.15 µM	1.82 µM	3.52 µM	–	–	–	–	2.67 µM
NC(=O)c1ccc(I)c(N=O)c1	38.5 µM	> 100 µM	18.6 µM	51.7 µM	> 100 µM	57.6 µM	> 100 µM	16.7 µM	31.8 µM	31.3 µM	87.8 µM	–	–	36.5 µM	> 100 µM	36.8 µM
COC1/C=C/C(C)C(C(C)C(OC)C(C)CCC(=O)C(C)C(C/C=C/N(C)C=O)OC)OC(=O)/C=C/C=C(\C)CC(OC)CC2=CC(=O)O[C@H](C2)C(C)C(OC)CC(OC)/C=C/C(C)C(OC)C1 (some centres undefined)	0.0297 µM	0.071 µM and 0.0601 µM	0.0122 µM	0.0919 µM	0.499 µM and 0.171 µM	0.0178 µM	0.0449 µM and 0.0169 µM	–	–	–	0.0399 µM	0.00105 µM	–	0.164 µM	0.11 µM	0.0289 µM
